According to ChEMBL document CHEMBL4680157, “Design, synthesis and biological evaluation of novel TRβ selective agonists sustained by ADME-toxicity analysis” (Eur J Med Chem, 2020):

Assays:
hERG (KCNH2) = hERG (KCNH2) (Homo sapiens, UniProt Q12809); assay: Inhibition of human ERG at 10 uM by fluorescence polarization assay relative to control
HDAC4 = HDAC4 (Homo sapiens, UniProt P56524); assay: Inhibition of HDAC4 (unknown origin) at 10 uM relative to control
[1] = Cytotoxicity against human MCF7 cells assessed as cell growth inhibition at 10 uM after 48 hrs relative to control; assay type: cell-based
CYP2C9 = CYP2C9 (Homo sapiens, UniProt P11712); assay: Inhibition of CYP2C9 (unknown origin) at 10 uM relative to control; assay type: ADME
CYP2C19 = CYP2C19 (Homo sapiens, UniProt P33261); assay: Inhibition of CYP2C19 (unknown origin) at 10 uM relative to control; assay type: ADME
[2] = Cytotoxicity against human hTERT cells assessed as cell growth inhibition at 10 uM after 24 hrs relative to control; assay type: cell-based, hTERT-BJ
[3] = Cytotoxicity against human HEK293 cells assessed as cell growth inhibition at 10 uM after 48 hrs relative to control; assay type: cell-based
[4] = Cytotoxicity against human U2OS cells assessed as cell growth inhibition at 10 uM after 24 hrs relative to control; assay type: cell-based
CYP1A2 = target: T1, CYP1A2 (Homo sapiens, UniProt P05177); assay: Inhibition of CYP1A2 (unknown origin) at 10 uM relative to control; assay type: ADME
T1 sequence (P05177 whole entry): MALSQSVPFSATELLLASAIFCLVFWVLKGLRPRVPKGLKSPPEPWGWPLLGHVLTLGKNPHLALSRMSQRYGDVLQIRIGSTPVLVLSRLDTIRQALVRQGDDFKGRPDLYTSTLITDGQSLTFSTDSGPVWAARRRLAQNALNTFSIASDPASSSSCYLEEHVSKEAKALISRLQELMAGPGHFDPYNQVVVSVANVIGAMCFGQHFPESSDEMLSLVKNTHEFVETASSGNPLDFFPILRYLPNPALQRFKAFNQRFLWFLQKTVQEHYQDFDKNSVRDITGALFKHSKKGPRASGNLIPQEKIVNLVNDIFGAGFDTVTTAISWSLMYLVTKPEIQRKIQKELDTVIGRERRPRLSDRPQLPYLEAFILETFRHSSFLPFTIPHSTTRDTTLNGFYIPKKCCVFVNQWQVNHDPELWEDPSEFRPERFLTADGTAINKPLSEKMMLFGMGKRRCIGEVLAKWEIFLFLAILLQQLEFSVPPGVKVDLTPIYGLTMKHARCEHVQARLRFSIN

[5] = Cytotoxicity against human MCF7 cells assessed as cell growth inhibition at 10 uM after 24 hrs relative to control; assay type: cell-based
Aurora B = Aurora B (Homo sapiens, UniProt Q96GD4); assay: Inhibition of Aurora B (unknown origin) at 10 uM relative to control
[6] = target: 3',5'-cyclic-AMP phosphodiesterase 4C (Homo sapiens) (UniProt Q08493); assay: Inhibition of PDE4C1 (unknown origin) at 10 uM relative to control
[7] = Cytotoxicity against human hTERT cells assessed as cell growth inhibition at 10 uM after 48 hrs relative to control; assay type: cell-based, hTERT-BJ
SIRT7 = target: T2, SIRT7 (Homo sapiens, UniProt Q9NRC8); assay: Inhibition of SIRT7 (unknown origin) at 10 uM relative to control
T2 sequence (Q9NRC8 whole entry): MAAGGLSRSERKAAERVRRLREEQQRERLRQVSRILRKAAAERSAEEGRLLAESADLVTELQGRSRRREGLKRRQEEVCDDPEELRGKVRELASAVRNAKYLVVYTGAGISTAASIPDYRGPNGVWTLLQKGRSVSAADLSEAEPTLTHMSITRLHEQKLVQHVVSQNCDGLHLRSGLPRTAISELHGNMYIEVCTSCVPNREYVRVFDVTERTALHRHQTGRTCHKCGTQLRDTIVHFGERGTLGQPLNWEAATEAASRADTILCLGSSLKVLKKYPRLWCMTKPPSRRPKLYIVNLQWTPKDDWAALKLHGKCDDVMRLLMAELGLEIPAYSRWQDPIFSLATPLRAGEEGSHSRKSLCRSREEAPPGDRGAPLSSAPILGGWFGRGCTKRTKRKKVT

[8] = Cytotoxicity against human HEK293 cells assessed as cell growth inhibition at 10 uM after 24 hrs relative to control; assay type: cell-based
HDAC9 = HDAC9 (Homo sapiens, UniProt Q9UKV0); assay: Inhibition of HDAC9 (unknown origin) at 10 uM relative to control
CYP2D6 = CYP2D6 (Homo sapiens, UniProt P10635); assay: Inhibition of CYP2D6 (unknown origin) at 10 uM relative to control; assay type: ADME
CYP3A4 = CYP3A4 (Homo sapiens, UniProt P08684); assay: Inhibition of CYP3A4 (unknown origin) at 10 uM relative to control; assay type: ADME
Chain of CYP3A4 (P08684 whole entry): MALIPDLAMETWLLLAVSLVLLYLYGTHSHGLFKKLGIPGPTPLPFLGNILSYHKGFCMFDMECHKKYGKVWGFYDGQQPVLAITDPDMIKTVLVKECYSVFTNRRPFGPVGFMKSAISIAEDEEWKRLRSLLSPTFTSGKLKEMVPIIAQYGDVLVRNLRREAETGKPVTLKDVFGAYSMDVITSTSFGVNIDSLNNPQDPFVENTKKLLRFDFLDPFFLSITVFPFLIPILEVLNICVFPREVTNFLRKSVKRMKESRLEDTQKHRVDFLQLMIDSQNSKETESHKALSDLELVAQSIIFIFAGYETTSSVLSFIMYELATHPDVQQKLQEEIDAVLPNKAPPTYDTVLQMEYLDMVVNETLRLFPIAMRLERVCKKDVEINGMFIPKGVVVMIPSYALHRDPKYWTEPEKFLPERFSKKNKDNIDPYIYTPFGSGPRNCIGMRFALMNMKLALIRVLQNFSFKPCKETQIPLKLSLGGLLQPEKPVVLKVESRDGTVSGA

Chain of CYP2C19 (P33261 whole entry): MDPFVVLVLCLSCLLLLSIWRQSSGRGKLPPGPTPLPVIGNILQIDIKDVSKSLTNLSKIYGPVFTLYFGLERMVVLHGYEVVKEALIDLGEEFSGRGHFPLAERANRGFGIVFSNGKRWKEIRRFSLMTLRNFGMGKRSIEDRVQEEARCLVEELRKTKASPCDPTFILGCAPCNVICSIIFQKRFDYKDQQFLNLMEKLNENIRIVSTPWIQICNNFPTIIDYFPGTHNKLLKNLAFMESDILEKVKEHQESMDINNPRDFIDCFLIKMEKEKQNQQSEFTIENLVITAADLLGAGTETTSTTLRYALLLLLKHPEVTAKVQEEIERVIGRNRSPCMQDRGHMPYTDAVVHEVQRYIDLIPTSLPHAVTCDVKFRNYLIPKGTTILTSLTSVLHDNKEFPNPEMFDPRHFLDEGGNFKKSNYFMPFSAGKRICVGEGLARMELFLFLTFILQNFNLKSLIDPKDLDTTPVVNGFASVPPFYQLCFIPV
Chain of CYP2D6 (P10635 whole entry): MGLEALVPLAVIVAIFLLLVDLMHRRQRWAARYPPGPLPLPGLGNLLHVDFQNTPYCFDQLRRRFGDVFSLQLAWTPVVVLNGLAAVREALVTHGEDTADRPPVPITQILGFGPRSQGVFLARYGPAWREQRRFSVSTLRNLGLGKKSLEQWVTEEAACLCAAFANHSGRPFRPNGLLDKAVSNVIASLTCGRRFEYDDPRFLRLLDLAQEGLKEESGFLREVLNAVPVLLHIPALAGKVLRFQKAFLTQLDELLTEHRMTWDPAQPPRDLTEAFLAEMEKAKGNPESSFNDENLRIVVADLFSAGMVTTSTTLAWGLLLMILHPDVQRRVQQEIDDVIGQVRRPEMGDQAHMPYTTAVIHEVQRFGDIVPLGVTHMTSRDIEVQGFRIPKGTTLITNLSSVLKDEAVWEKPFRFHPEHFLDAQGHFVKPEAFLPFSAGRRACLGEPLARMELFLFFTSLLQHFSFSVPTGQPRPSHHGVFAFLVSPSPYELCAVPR
Chain of 3',5'-cyclic-AMP phosphodiesterase 4C (Homo sapiens) (Q08493 whole entry): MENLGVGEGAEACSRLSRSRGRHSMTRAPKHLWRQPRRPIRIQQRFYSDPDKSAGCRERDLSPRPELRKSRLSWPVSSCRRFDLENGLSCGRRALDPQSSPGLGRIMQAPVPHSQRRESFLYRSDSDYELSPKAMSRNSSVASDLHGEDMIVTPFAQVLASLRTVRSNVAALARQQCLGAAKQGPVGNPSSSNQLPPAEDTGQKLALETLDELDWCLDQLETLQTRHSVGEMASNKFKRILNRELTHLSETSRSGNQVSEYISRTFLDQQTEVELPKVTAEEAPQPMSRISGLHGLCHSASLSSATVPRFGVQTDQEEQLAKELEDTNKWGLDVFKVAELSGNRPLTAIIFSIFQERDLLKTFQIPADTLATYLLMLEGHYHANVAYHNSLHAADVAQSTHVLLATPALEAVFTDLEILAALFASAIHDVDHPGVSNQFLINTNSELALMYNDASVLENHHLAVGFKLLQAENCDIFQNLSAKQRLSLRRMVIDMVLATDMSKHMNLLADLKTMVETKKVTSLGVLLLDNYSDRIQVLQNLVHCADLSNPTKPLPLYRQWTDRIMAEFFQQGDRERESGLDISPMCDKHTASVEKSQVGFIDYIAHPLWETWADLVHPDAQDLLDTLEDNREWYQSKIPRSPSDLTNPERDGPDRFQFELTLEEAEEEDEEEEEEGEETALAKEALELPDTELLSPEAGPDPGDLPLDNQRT
Chain of Aurora B (Q96GD4 whole entry): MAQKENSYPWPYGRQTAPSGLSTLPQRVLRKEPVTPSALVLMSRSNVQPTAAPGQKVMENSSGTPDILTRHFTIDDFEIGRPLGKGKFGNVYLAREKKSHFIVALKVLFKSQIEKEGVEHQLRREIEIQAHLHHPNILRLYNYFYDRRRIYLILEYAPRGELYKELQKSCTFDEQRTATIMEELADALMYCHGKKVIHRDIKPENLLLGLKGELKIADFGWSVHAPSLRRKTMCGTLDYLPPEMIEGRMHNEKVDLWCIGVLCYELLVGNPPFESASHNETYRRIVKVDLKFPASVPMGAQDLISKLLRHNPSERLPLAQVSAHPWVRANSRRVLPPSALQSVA
Chain of CYP2C9 (P11712 whole entry): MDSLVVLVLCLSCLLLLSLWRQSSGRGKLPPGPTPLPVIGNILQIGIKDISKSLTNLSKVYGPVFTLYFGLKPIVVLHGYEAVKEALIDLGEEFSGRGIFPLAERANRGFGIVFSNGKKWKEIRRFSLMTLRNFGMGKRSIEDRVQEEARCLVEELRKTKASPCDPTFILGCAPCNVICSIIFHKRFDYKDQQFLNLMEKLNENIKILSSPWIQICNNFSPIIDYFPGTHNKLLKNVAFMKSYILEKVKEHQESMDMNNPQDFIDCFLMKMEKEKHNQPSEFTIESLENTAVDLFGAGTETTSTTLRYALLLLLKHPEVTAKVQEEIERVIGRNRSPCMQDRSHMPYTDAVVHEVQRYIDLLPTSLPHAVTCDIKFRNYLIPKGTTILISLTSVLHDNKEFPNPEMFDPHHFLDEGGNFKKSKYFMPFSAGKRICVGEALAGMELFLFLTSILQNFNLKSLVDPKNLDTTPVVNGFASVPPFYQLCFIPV
Chain of hERG (KCNH2) (Q12809 whole entry): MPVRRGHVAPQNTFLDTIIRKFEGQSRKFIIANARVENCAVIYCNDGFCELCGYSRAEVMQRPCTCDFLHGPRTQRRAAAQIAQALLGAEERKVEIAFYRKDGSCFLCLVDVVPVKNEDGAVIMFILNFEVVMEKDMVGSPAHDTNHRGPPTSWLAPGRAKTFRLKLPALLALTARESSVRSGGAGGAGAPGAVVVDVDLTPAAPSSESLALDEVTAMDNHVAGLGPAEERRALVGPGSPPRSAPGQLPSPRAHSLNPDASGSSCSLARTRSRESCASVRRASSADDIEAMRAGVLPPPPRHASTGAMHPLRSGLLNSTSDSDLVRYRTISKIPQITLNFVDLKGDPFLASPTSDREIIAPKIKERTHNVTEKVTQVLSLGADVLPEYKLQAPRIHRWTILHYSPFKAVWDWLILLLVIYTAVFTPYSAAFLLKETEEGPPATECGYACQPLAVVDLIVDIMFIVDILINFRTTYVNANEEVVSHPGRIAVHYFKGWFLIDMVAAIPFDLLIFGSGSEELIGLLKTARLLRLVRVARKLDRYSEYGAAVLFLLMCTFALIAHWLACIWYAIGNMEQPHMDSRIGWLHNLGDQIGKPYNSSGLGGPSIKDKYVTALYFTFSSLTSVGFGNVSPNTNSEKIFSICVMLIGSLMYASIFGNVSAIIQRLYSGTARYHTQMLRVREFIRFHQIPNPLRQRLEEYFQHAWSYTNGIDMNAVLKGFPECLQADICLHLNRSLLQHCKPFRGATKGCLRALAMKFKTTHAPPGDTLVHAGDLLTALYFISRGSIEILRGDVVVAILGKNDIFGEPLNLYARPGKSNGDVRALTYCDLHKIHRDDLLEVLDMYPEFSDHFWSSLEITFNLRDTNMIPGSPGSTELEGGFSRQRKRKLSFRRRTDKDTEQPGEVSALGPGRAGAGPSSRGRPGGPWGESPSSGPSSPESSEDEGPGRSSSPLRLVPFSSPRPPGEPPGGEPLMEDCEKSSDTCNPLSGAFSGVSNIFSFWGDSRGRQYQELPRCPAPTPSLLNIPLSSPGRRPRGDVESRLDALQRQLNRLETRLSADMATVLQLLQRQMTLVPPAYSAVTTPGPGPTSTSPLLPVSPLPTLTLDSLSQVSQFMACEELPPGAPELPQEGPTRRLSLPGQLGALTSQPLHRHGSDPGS

| Compound | inhibition at 10 µM (hERG (KCNH2)) [%] | inhibition at 10 µM (HDAC4) [%] | inhibition at 48 h, 10 µM [1] [%] | inhibition at 10 µM (CYP2C9) [%] | inhibition at 10 µM (CYP2C19) [%] | inhibition at 24 h, 10 µM [2] [%] | inhibition at 48 h, 10 µM [3] [%] | inhibition at 24 h, 10 µM [4] [%] | inhibition at 10 µM (CYP1A2) [%] | inhibition at 24 h, 10 µM [5] [%] | inhibition at 10 µM (Aurora B) [%] | inhibition [6] [%] | inhibition at 48 h, 10 µM [7] [%] | inhibition at 10 µM (SIRT7) [%] | inhibition at 24 h, 10 µM [8] [%] | inhibition at 10 µM (HDAC9) [%] | inhibition at 10 µM (CYP2D6) [%] | inhibition at 10 µM (CYP3A4) [%] |
| --- | --- | --- | --- | --- | --- | --- | --- | --- | --- | --- | --- | --- | --- | --- | --- | --- | --- | --- |
| CC(=O)Nc1ccc(Cc2c(C)cc(OCC(=O)O)cc2C)cc1C(C)C | < 25 | < 50 | < 50 | < 50 | < 50 | < 50 | < 50 | < 50 | < 50 | < 50 | < 50 | < 50 | < 50 | < 50 | < 50 | < 50 | < 50 | < 50 |
| Cc1cc(OCC(=O)O)cc(C)c1Cc1ccc(O)cc1 | < 25 | < 50 | < 50 | < 50 | < 50 | < 50 | < 50 | < 50 | < 50 | < 50 | < 50 | < 50 | < 50 | < 50 | < 50 | < 50 | < 50 | < 50 |
| Cc1cc(OCC(=O)O)cc(C)c1Cc1ccc(N)c(C(C)C)c1 | < 40 | < 50 | < 50 | < 50 | < 50 | < 50 | < 50 | < 50 | < 50 | < 50 | < 50 | < 50 | < 50 | < 50 | < 50 | < 50 | < 50 | 51 |
